Data reported in ChEMBL document CHEMBL6127052, “Discovery of membrane-targeting amphiphilic honokiol derivatives containing an oxazolethione moiety to combat methicillin-resistant Staphylococcus aureus (MRSA) infections” (Eur J Med Chem, 2024).
Calls of active or inactive are those of the source.

Assays:
[1] = test system: Staphylococcus aureus; experiment: Antibacterial activity against Staphylococcus aureus ATCC 29213 by CLSI based micro-broth dilution method; assay type: functional
[2] = test system: Staphylococcus aureus; experiment: Antibacterial activity against methicillin-resistant Staphylococcus aureus clinical isolate M21 by CLSI based micro-broth dilution method; assay type: functional
[3] = test system: Escherichia coli; experiment: Antibacterial activity against Escherichia coli ATCC 25922 by CLSI based micro-broth dilution method; assay type: functional
[4] = test system: Staphylococcus aureus; experiment: Bactericidal activity against Staphylococcus aureus ATCC 29213 at 8 times MIC incubated upto 8 hrs by time-kill assay; assay type: functional, organism-based
[5] = test system: Staphylococcus aureus; experiment: Bactericidal activity against Staphylococcus aureus ATCC 29213 assessed as inhibition of bacterial growth at 4 times MIC incubated upto 8 hrs by time-kill assay; assay type: functional, organism-based
[6] = test system: Staphylococcus aureus; experiment: Induction of morphological changes in methicillin-resistant Staphylococcus aureus clinical isolate M12 assessed as irregular change in cell surface at 8 times MIC incubated for 4 hrs by SEM analysis; assay type: functional, organism-based
[7] = test system: Staphylococcus aureus; experiment: Antibacterial activity against methicillin-resistant Staphylococcus aureus clinical isolate M12 incubated for 16 to 18 hrs in presence of phosphatidylethanolamine; assay type: functional; conditions: time 16-18 hrs
[8] = test system: Staphylococcus aureus; experiment: Antibacterial activity against methicillin-resistant Staphylococcus aureus clinical isolate M12 incubated for 16 to 18 hrs in presence of peptidoglycan; assay type: functional; conditions: time 16-18 hrs
[9] = test system: Staphylococcus aureus; experiment: Disruption of cell membrane in methicillin-resistant Staphylococcus aureus clinical isolate M12 assessed as increase in DNA leakage incubated for 4 hrs by […]; assay type: functional, organism-based; conditions: dose <= 16.0 µg/ml
[10] = test system: Staphylococcus aureus; experiment: Disruption of cell membrane in methicillin-resistant Staphylococcus aureus clinical isolate M12 assessed as increase in protein leakage incubated for 4 hrs by BCA assay; assay type: functional, organism-based; conditions: dose <= 16.0 µg/ml
[11] = Toxicity in KM mouse assessed as smooth skin at <20 mg/kg, sc; assay type: organism-based; conditions: in vivo
[12] = Toxicity in KM mouse assessed as skin abnormality at <20 mg/kg, sc; assay type: organism-based; conditions: in vivo
[13] = Toxicity in KM mouse assessed as change in albumin level at 20 mg/kg, sc measured after 24 hrs; assay type: organism-based; conditions: in vivo
[14] = Toxicity in KM mouse assessed as change in HCT level at 20 mg/kg, sc measured after 24 hrs; assay type: organism-based; conditions: in vivo
[15] = Toxicity in KM mouse assessed as change in WBC count at 20 mg/kg, sc measured after 24 hrs; assay type: organism-based; conditions: in vivo
[16] = Toxicity in KM mouse assessed as inflammatory cells in skin section at 20 mg/kg, sc measured after 24 hrs by H and E staining based analysis; assay type: organism-based; conditions: in vivo
[17] = Toxicity in KM mouse assessed as edema in cardiac muscle fibers at 20 mg/kg, sc measured after 24 hrs by H and E staining based analysis; assay type: organism-based; conditions: in vivo
[18] = Toxicity in KM mouse assessed as edema in renal tubular epithelial cells at 20 mg/kg, sc measured after 24 hrs by H and E staining based analysis; assay type: organism-based; conditions: in vivo
[19] = Toxicity in KM mouse assessed as pathological change in red medulla of spleen at 20 mg/kg, sc measured after 24 hrs by H and E staining based analysis; assay type: organism-based; conditions: in vivo
[20] = Toxicity in KM mouse assessed as pathological change in lung at 20 mg/kg, sc measured after 24 hrs by H and E staining based analysis; assay type: organism-based; conditions: in vivo
[21] = Toxicity in KM mouse assessed as pathological change in skin at 20 mg/kg, sc measured after 24 hrs by H and E staining based analysis; assay type: organism-based; conditions: in vivo
[22] = Toxicity in BALB/c mouse assessed as knotted hair at 40 mg/kg, ip bid for 7 days; assay type: organism-based; conditions: in vivo, 168 h, time 7 day
[23] = Toxicity in BALB/c mouse assessed as smooth hair at <15 mg/kg, ip bid for 7 days; assay type: organism-based; conditions: in vivo, 168 h, time 7 day
[24] = Toxicity in BALB/c mouse assessed as edema in renal tubular epithelial cells at 15 mg/kg, ip bid for 7 days; assay type: organism-based; conditions: in vivo, 168 h, time 7 day
[25] = Toxicity in BALB/c mouse assessed as necrosis in renal tubular epithelial cells at 15 mg/kg, ip bid for 7 days; assay type: organism-based; conditions: in vivo, 168 h, time 7 day
[26] = Toxicity in BALB/c mouse assessed as pathological change in red medulla of spleen at 15 mg/kg, ip bid for 7 days; assay type: organism-based; conditions: in vivo, 168 h, time 7 day
[27] = test system: Staphylococcus aureus; experiment: Antibacterial activity against methicillin-resistant Staphylococcus aureus clinical isolate M12 infected in KM mouse assessed as smooth skin at infection site at 10 mg/kg, sc measured after 24 hrs; assay type: functional, organism-based
[28] = test system: Staphylococcus aureus; experiment: Bactericidal activity against methicillin-resistant Staphylococcus aureus clinical isolate M12 infected in KM mouse assessed as decrease in inflammatory cells in epidermis at 10 mg/kg, sc measured after 24 hrs; assay type: functional, organism-based
[29] = test system: Staphylococcus aureus; experiment: Bactericidal activity against methicillin-resistant Staphylococcus aureus clinical isolate M12 infected in KM mouse assessed as decrease in inflammatory cells in dermis at 10 mg/kg, sc measured after 24 hrs; assay type: functional, organism-based
[30] = test system: Staphylococcus aureus; experiment: Antibacterial activity against methicillin-resistant Staphylococcus aureus clinical isolate M12 infected in KM mouse assessed as reduction in TNF-alpha level at infection site at 10 mg/kg, sc measured after 24 hrs by ELISA; assay type: functional
[31] = test system: Staphylococcus aureus; experiment: Antibacterial activity against methicillin-resistant Staphylococcus aureus clinical isolate M12 infected in KM mouse assessed as reduction in IL-6 level at infection site at 10 mg/kg, sc measured after 24 hrs by ELISA; assay type: functional
[32] = Toxicity in KM mouse infected with methicillin-resistant Staphylococcus aureus clinical isolate M12 assessed as histopathological abnormality in heart at 5 to 10 mg/kg, sc measured after 24 hrs by H and E staining based analysis; assay type: organism-based; conditions: in vivo, dose 5-10 mg/kg
[33] = Toxicity in KM mouse infected with methicillin-resistant Staphylococcus aureus clinical isolate M12 assessed as histopathological abnormality in kidney at 5 to 10 mg/kg, sc measured after 24 hrs by H and E staining based analysis; assay type: organism-based; conditions: in vivo, dose 5-10 mg/kg
[34] = Toxicity in sepsis BALB/c mouse model infected with methicillin-resistant Staphylococcus aureus clinical isolate M12 assessed as survival rate at 6 mg/kg, ip administered consecutively at 12 hr-interval for 7 days measured after 24 hrs post-last dose; assay type: organism-based; conditions: in vivo, 192 h, time 8 day
[35] = Toxicity in sepsis BALB/c mouse model infected with methicillin-resistant Staphylococcus aureus clinical isolate M12 assessed as survival rate at 12 mg/kg, ip administered consecutively at 12 hr-interval for 7 days measured after 24 hrs post-last dose; assay type: organism-based; conditions: in vivo, 192 h, time 8 day
[36] = test system: Staphylococcus aureus; experiment: (§1) Antibacterial activity against methicillin-resistant Staphylococcus aureus clinical isolate M12 infected in sepsis BALB/c mouse model assessed as decrease in degeneration of hepatocytes at 6 mg/kg, ip administered consecutively at 12 hr-interval for 24 hrs measured after 24 hrs post-last dose by H and E staining based analysis; assay type: functional, organism-based; conditions: time 48.0 hrs
[37] = test system: Staphylococcus aureus; experiment: as §1, with “pathological change in red medulla” for “degeneration”, “spleen” for “hepatocytes”; assay type: functional, organism-based; conditions: time 48.0 hrs
[38] = test system: Staphylococcus aureus; experiment: as §1, with “pathological change in white medulla” for “degeneration”, “spleen” for “hepatocytes”; assay type: functional, organism-based; conditions: time 48.0 hrs
[39] = test system: Staphylococcus aureus; experiment: as §1, with “renal tubular epithelial cells” for “hepatocytes”, “6 to 12” for “6”; assay type: functional, organism-based; conditions: dose 6-12 mg/kg, time 48.0 hrs

C=CCc1cc(-c2ccc(OCCC[N+](C)(C)CC(=O)NCCCC)c(CC=C)c2)c2oc(=S)n(Cc3ccc(F)cc3)c2c1.[Br-]
> 128 µg/mL: MIC [3]
102.6 pg/mL: Activity [30]
active: Activity [4] | Activity [5] | Activity [6] | Activity [9] Dose-Dependent Effect | Activity [10] Dose-Dependent Effect | Activity [27] | Activity [28] | Activity [29] | Activity [39]
Toxic: Activity [22]
inactive: Activity [36] | Activity [37] | Activity [38]
2 µg/mL: MIC [1] | MIC [2] | MIC [7] | MIC [8]
66.7 pg/mL: Activity [31]
16.7%: Survival [34]
Non-Toxic: Activity [11] | Activity [12] | Activity [13] | Activity [14] | Activity [15] | Activity [16] | Activity [17] | Activity [18] | Activity [19] | Activity [20] | Activity [21] | Activity [23] | Activity [24] | Activity [25] | Activity [26] | Activity [32] | Activity [33]
33.3%: Survival [35]
